Results reported in patent US20090221624A1, “4-AMINOQUINOLINE COMPOUNDS FOR TREATING VIRUS-RELATED CONDITIONS” (priority 2005, published 2009).

Tests used:
WNV (WN-hRuPac cells) = experiment: WNV antiviral activity, WN-hRuPac cells, Renilla luciferase; type: cell-based, West Nile virus; conditions: for EC50 / inhibition at 25 µM: West Nile virus; for EC50: Secondary Data, WNV, read-out: WNV EC50; for inhibition at 25 µM: primary screening, 25 μM final concentration, 24 hours, percent inhibition of viral replication, read-out: WNV Inh; for WNV TI: therapeutic index CC50/EC50, WNV
[1] = tested on: HCV replicon (Clone A cells, Huh7, subgenomic hepatits C virus RNA); experiment: HCV Neo screening assay (HCV replicon, NPTII ELISA); type: cell-based, hepatitis C virus; conditions: for inhibition at 25 µM / EC50: Hepatitis C virus, Huh-7; for inhibition at 25 µM: primary screening, 25 μM final concentration, 24 hours, percent inhibition of viral replication, read-out: HCV Inh; for EC50: Secondary Data, HCV; for HCV TI: therapeutic index CC50/EC50, HCV
EBOV minigenome = experiment: microbe, parasite or virus in culture; type: cell-based, Ebola virus; conditions: Zaire ebolavirus; for inhibition at 25 µM: 24 h, read-out: EBOV Inh; for EC50: read-out: EBOV EC50
SINV (SR19-F-luc cells) = experiment: SINV antiviral activity, SR19-F-luc cells, Firefly luciferase; type: cell-based; conditions: Sindbis virus; for inhibition at 25 µM: primary screening, 25 μM final concentration, 24 hours, percent inhibition of viral replication, read-out: SINV Inh; for EC50: secondary screening, SR19-F-luc cells
DNG (D2-hRuPac cells) = experiment: DNG antiviral activity, D2-hRuPac cells, Renilla luciferase; type: cell-based, Dengue fever virus; conditions: Dengue virus, secondary screening
RSV minigenome = experiment: RSV minigenome-dependent β-galactosidase expression assay (RSV β-Gal); type: cell-based, respiratory syncytial virus; conditions: for EC50 / inhibition at 25 µM: human respiratory syncytial virus; for EC50: Secondary Data, RSV, read-out: RSV EC50; for inhibition at 25 µM: primary screening, 25 μM final concentration, 24 hours, percent inhibition of viral replication, read-out: RSV Inh; for RSV TI: therapeutic index CC50/EC50, RSV
YFV (YF-hRuPac cells) = experiment: microbe, parasite or virus in culture; type: cell-based, yellow fever virus; conditions: for inhibition at 25 µM / EC50: Yellow fever virus; for inhibition at 25 µM: 24 h, read-out: YFV Inh; for EC50: read-out: YFV EC50

CCOC(=O)c1cnc2c(C)cccc2c1NCc1ccco1 [Compound 46]
EC50 (WNV (WN-hRuPac cells)): 2.96 µM
inhibition at 25 µM (WNV (WN-hRuPac cells)): 103%
WNV TI (WNV (WN-hRuPac cells)): 16.59
inhibition at 25 µM [1]: 15%
inhibition at 25 µM (EBOV minigenome): 90%
EC50 (EBOV minigenome): 7.92 µM
inhibition at 25 µM (SINV (SR19-F-luc cells)): -16.9%
EC50 (SINV (SR19-F-luc cells)): 49.7 µM
EC50 (DNG (D2-hRuPac cells)): 10.2 µM
EC50 (RSV minigenome): 1.31 µM
inhibition at 25 µM (RSV minigenome): 94.7%
RSV TI (RSV minigenome): 37.48
YFV TI (YFV (YF-hRuPac cells)): 13.87
inhibition at 25 µM (YFV (YF-hRuPac cells)): 97.7%
EC50 (YFV (YF-hRuPac cells)): 3.54 µM
CC50 (in vitro; DNG CC50): 49.1 µM
CC50 (in vitro; EBOV CC50): 49.1 µM
CC50 (in vitro; RSV CC50): 49.1 µM
CC50 (in vitro; SINV CC50): 49.1 µM
CC50 (in vitro; WNV CC50): 49.1 µM
CC50 (in vitro; YFV CC50): 49.1 µM

CCc1ccccc1Nc1c2ccccc2nc2ccccc12 [Compound 2]
EC50 (WNV (WN-hRuPac cells)): 17.8 µM
inhibition at 25 µM (WNV (WN-hRuPac cells)): 49.6%
WNV TI (WNV (WN-hRuPac cells)): 1.85
EC50 [1]: 8 µM
inhibition at 25 µM [1]: 154%
HCV TI [1]: 0.77
inhibition at 25 µM (EBOV minigenome): 20.1%
EC50 (EBOV minigenome): 38.7 µM
inhibition at 25 µM (SINV (SR19-F-luc cells)): 70.2%
EC50 (SINV (SR19-F-luc cells)): 19.3 µM
EC50 (DNG (D2-hRuPac cells)): 21.3 µM
EC50 (RSV minigenome): 1.3 µM
inhibition at 25 µM (RSV minigenome): 99.8%
RSV TI (RSV minigenome): 25.33
YFV TI (YFV (YF-hRuPac cells)): 4.95
inhibition at 25 µM (YFV (YF-hRuPac cells)): 71.8%
EC50 (YFV (YF-hRuPac cells)): 6.65 µM
CC50 (in vitro; DNG CC50): 32.9 µM
CC50 (in vitro; EBOV CC50): 32.9 µM
CC50 (in vitro; HCV CC50): 6.12 µM
CC50 (in vitro; RSV CC50): 32.9 µM
CC50 (in vitro; SINV CC50): 32.9 µM
CC50 (in vitro; WNV CC50): 32.9 µM
CC50 (in vitro; YFV CC50): 32.9 µM

CCOC(=O)c1cnc2c(C)cc(C)cc2c1NCc1ccco1 [Compound 35]
EC50 (WNV (WN-hRuPac cells)): 2.52 µM
inhibition at 25 µM (WNV (WN-hRuPac cells)): 104%
WNV TI (WNV (WN-hRuPac cells)): 14.76
EC50 [1]: 8.35 µM
inhibition at 25 µM [1]: 67.5%
HCV TI [1]: 6.34
inhibition at 25 µM (EBOV minigenome): 75.2%
EC50 (EBOV minigenome): 6.64 µM
inhibition at 25 µM (SINV (SR19-F-luc cells)): 44.9%
EC50 (SINV (SR19-F-luc cells)): ≥ 75 µM
EC50 (DNG (D2-hRuPac cells)): 11.1 µM
EC50 (RSV minigenome): 1.04 µM
inhibition at 25 µM (RSV minigenome): 89.9%
RSV TI (RSV minigenome): 35.77
YFV TI (YFV (YF-hRuPac cells)): 12.28
inhibition at 25 µM (YFV (YF-hRuPac cells)): 98.7%
EC50 (YFV (YF-hRuPac cells)): 3.03 µM
CC50 (in vitro; DNG CC50): 37.2 µM
CC50 (in vitro; EBOV CC50): 37.2 µM
CC50 (in vitro; HCV CC50): 53 µM
CC50 (in vitro; RSV CC50): 37.2 µM
CC50 (in vitro; SINV CC50): 37.2 µM
CC50 (in vitro; WNV CC50): 37.2 µM
CC50 (in vitro; YFV CC50): 37.2 µM

CCOC(=O)c1cnc2c(Cl)cccc2c1NCc1ccco1 [Compound 55]
EC50 (WNV (WN-hRuPac cells)): 13 µM
inhibition at 25 µM (WNV (WN-hRuPac cells)): 94.9%
WNV TI (WNV (WN-hRuPac cells)): 3.72
inhibition at 25 µM [1]: 21.9%
inhibition at 25 µM (EBOV minigenome): 72.8%
EC50 (EBOV minigenome): 10.4 µM
inhibition at 25 µM (SINV (SR19-F-luc cells)): 29.1%
EC50 (SINV (SR19-F-luc cells)): ≥ 75 µM
EC50 (DNG (D2-hRuPac cells)): 8.53 µM
EC50 (RSV minigenome): 5.46 µM
inhibition at 25 µM (RSV minigenome): 81.5%
RSV TI (RSV minigenome): 8.85
YFV TI (YFV (YF-hRuPac cells)): 7.96
inhibition at 25 µM (YFV (YF-hRuPac cells)): 94.3%
EC50 (YFV (YF-hRuPac cells)): 6.07 µM
CC50 (in vitro; DNG CC50): 48.3 µM
CC50 (in vitro; EBOV CC50): 48.3 µM
CC50 (in vitro; HCV CC50): ≥ 75 µM
CC50 (in vitro; RSV CC50): 48.3 µM
CC50 (in vitro; SINV CC50): 48.3 µM
CC50 (in vitro; WNV CC50): 48.3 µM
CC50 (in vitro; YFV CC50): 48.3 µM

CCOC(=O)c1cnc2ccc(OC)cc2c1NCc1ccco1 [Compound 29]
EC50 (WNV (WN-hRuPac cells)): 3.36 µM
inhibition at 25 µM (WNV (WN-hRuPac cells)): 105%
WNV TI (WNV (WN-hRuPac cells)): 6.58
inhibition at 25 µM [1]: 35.3%
inhibition at 25 µM (EBOV minigenome): 86.4%
EC50 (EBOV minigenome): 8.75 µM
inhibition at 25 µM (SINV (SR19-F-luc cells)): -33.8%
EC50 (SINV (SR19-F-luc cells)): 43 µM
EC50 (DNG (D2-hRuPac cells)): 7.43 µM
EC50 (RSV minigenome): 0.29 µM
inhibition at 25 µM (RSV minigenome): 96.2%
RSV TI (RSV minigenome): 76.21
YFV TI (YFV (YF-hRuPac cells)): 5.97
inhibition at 25 µM (YFV (YF-hRuPac cells)): 98.4%
EC50 (YFV (YF-hRuPac cells)): 3.7 µM
CC50 (in vitro; DNG CC50): 22.1 µM
CC50 (in vitro; EBOV CC50): 22.1 µM
CC50 (in vitro; HCV CC50): ≥ 75 µM
CC50 (in vitro; RSV CC50): 22.1 µM
CC50 (in vitro; SINV CC50): 22.1 µM
CC50 (in vitro; WNV CC50): 22.1 µM
CC50 (in vitro; YFV CC50): 22.1 µM

CCOc1ccc2nc(C)cc(Nc3cc(Cl)ccc3OC)c2c1 [Compound 58]
EC50 (WNV (WN-hRuPac cells)): 3.8 µM
inhibition at 25 µM (WNV (WN-hRuPac cells)): 91.5%
WNV TI (WNV (WN-hRuPac cells)): 4.91
EC50 [1]: 4.95 µM
inhibition at 25 µM [1]: 137%
HCV TI [1]: 2.38
inhibition at 25 µM (EBOV minigenome): 80.2%
EC50 (EBOV minigenome): 4.94 µM
inhibition at 25 µM (SINV (SR19-F-luc cells)): 92.8%
EC50 (SINV (SR19-F-luc cells)): 4.2 µM
EC50 (DNG (D2-hRuPac cells)): 6.91 µM
EC50 (RSV minigenome): 2.34 µM
inhibition at 25 µM (RSV minigenome): 99.8%
RSV TI (RSV minigenome): 7.98
YFV TI (YFV (YF-hRuPac cells)): 7.04
inhibition at 25 µM (YFV (YF-hRuPac cells)): 96.6%
EC50 (YFV (YF-hRuPac cells)): 2.65 µM
CC50 (in vitro; DNG CC50): 18.7 µM
CC50 (in vitro; EBOV CC50): 18.7 µM
CC50 (in vitro; HCV CC50): 11.8 µM
CC50 (in vitro; RSV CC50): 18.7 µM
CC50 (in vitro; SINV CC50): 18.7 µM
CC50 (in vitro; WNV CC50): 18.7 µM
CC50 (in vitro; YFV CC50): 18.7 µM
